Tests used:
Format in all cases: biochemical
PLK1 = PLK1 (Homo sapiens, UniProt P53350); assay: PLK1 Inhibition Assay I (radioactive-phosphate incorporation); conditions: Ki(app); PLK1 Inhibition Assay I or II (table does not say which)
Method in brief: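 Ki(app) values came from non-linear regression of initial rates after background subtraction, with phosphopeptide measured by phosphocellulose filter binding and scintillation counting. PLK1 at 2 nM was preincubated with compound (typically from 10 μM, 2-fold dilutions) for 10 min, then run 240 min at 25° C with 350 μM [γ-33P]ATP and 450 μM peptide substrate in HEPES pH 7.5 buffer.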

PLK2 = PLK2 (Homo sapiens, UniProt Q9NYY3); assay: PLK2 Inhibition Assay (radioactive-phosphate incorporation); conditions: selectivity ratio, PLK2 over PLK1
Protocol: (§1) The compounds of the present invention are evaluated as inhibitors of human PLK kinase using the following assays.
Compounds were screened for their ability to inhibit PLK2 using a radioactive-phosphate incorporation assay. Assays were carried out in a mixture of 25 mM HEPES (pH 7.5), 10 mM MgCl2, 0.1% BSA, and 2 mM DTT. Final substrate concentrations were 200 μM [γ-33P]ATP (57 mCi 33P ATP/mmol ATP, Amersham Pharmacia Biotech/Sigma Chemicals) and 300 μM peptide (KKKISDELMDATFADQEAK) [SEQ ID:3]. Assays were carried out at 25° C. in the presence of 25 nM PLK2. An assay stock buffer solution was prepared containing all of the reagents listed above, with the exception of ATP and the test compound of interest. 30 μL of the stock solution was placed in a 96 well plate followed by addition of 2 μL of DMSO stock containing serial dilutions of the test compound (typically starting from a final concentration of 10 μM with 2-fold serial dilutions) in duplicate (final DMSO concentration 5%). The plate was pre-incubated for 10 minutes at 25° C. and the reaction initiated by addition of 8 μL [γ-33P]ATP (final concentration 200 μM).
(§2) The reaction was stopped after 90 minutes by the addition of 100 μL 0.14 M phosphoric acid. A multiscreen phosphocellulose filter 96-well plate (Millipore, Cat No. MAPHN0B50) was pretreated with 100 μL 0.2M phosphoric acid prior to the addition of 125 μL of the stopped assay mixture. The plate was washed with 4×200 μL 0.2 M phosphoric acid. After drying, 100 μL Optiphase ‘SuperMix’ liquid scintillation cocktail (Perkin Elmer) was added to the well prior to scintillation counting (1450 Microbeta Liquid Scintillation Counter, Wallac).
(§3) After removing mean background values for all of the data points, Ki(app) data were calculated from non-linear regression analysis of the initial rate data using the Prism software package (GraphPad Prism version 3.0cx for Macintosh, GraphPad Software, San Diego Calif., USA).

PLK3 (S38-A340) = target: T1, PLK3 (S38-A340) (Homo sapiens, UniProt Q9H4B4); assay: PLK3 Inhibition Assay (radioactive-phosphate incorporation); conditions: selectivity ratio, PLK3 over PLK1
T1 construct: in the presence of 5 nM PLK3 (S38-A340)
Protocol: as §1
Compounds were screened for their ability to inhibit PLK3 using a radioactive-phosphate incorporation assay. Assays were carried out in a mixture of 25 mM HEPES (pH 7.5), 10 mM MgCl2, and 1 mM DTT. Final substrate concentrations were 75 μM [γ-33P]ATP (60 mCi 33P ATP/mmol ATP, Amersham Pharmacia Biotech/Sigma Chemicals) and 10 μM peptide (SAM68 protein Δ332-443). Assays were carried out at 25° C. in the presence of 5 nM PLK3 (S38-A340). An assay stock buffer solution was prepared containing all of the reagents listed above, with the exception of ATP and the test compound of interest. 30 μL of the stock solution was placed in a 96 well plate followed by addition of 2 μL of DMSO stock containing serial dilutions of the test compound (typically starting from a final concentration of 10 μM with 2-fold serial dilutions) in duplicate (final DMSO concentration 5%). The plate was pre-incubated for 10 minutes at 25° C. and the reaction initiated by addition of 8 μL [γ-33P]ATP (final concentration 75 μM).
as §2, with “60” for “90”, “0.14M” for “0.14 M”
as §3

Sequence of PLK1 (P53350 whole entry): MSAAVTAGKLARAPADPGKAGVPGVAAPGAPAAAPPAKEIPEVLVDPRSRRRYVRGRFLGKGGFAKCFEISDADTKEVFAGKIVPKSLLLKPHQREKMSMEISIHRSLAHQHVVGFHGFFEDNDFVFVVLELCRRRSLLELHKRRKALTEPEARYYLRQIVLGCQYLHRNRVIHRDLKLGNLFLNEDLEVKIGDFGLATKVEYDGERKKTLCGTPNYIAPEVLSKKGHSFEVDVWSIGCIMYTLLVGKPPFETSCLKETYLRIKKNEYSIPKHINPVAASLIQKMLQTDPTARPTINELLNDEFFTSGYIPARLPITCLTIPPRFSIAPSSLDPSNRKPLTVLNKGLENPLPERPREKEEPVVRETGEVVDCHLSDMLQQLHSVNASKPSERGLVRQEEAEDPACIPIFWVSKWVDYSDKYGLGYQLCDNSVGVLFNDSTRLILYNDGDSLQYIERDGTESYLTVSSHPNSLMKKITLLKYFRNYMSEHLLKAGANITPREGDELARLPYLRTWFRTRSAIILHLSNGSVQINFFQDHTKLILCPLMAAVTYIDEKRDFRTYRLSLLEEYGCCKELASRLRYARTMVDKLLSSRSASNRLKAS
T1 sequence (Q9H4B4 58-340 limits assumed): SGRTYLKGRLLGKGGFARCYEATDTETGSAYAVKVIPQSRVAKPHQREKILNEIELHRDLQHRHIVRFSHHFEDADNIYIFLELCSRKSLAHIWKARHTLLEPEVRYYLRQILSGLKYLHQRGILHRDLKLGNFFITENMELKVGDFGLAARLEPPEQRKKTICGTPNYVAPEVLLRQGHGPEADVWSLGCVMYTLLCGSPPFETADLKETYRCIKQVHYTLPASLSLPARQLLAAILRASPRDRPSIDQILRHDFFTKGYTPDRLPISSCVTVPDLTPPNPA
Sequence of PLK2 (Q9NYY3 whole entry): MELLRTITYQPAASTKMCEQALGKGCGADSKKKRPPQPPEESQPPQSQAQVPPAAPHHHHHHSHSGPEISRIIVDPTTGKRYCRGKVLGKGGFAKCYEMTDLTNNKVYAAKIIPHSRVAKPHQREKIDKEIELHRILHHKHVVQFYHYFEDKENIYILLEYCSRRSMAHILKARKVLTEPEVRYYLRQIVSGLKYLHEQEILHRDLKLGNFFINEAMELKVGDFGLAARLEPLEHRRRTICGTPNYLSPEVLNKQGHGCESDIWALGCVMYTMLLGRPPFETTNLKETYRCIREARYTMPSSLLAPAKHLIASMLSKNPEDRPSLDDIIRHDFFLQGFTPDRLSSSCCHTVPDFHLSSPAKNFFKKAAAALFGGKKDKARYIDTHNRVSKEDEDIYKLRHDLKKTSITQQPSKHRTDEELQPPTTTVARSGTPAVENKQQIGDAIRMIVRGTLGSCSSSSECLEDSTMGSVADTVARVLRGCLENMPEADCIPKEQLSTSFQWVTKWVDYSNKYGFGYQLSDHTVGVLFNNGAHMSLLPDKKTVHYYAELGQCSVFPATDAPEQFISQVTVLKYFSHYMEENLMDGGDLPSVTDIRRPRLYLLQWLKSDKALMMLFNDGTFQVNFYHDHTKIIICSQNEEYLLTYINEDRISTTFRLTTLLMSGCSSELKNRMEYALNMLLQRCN

Ki (PLK1) [nM]	Ki(PLK2)/Ki(PLK1) (PLK2)	Ki(PLK3)/Ki(PLK1) (PLK3 (S38-A340))	SMILES
< 3	210	140	C[C@@H](Nc1ncc(C#N)c(-c2c[nH]c3ncc(C(F)(F)F)cc23)n1)c1ccc(N2CCN(C)CC2)cc1 [Compound I-127, 2-((R)-1-(4-(4-methylpiperazin-1-yl)phenyl)ethylamino)-4-(5-(trifluoromethyl)-1H-pyrrolo[2,3-b]pyridin-3-yl)pyrimidine-5-carbonitrile]
< 3	67	14	CC(Nc1ncc(C#N)c(-c2c[nH]c3ncc(C(F)(F)F)cc23)n1)c1ccc(N[C@@H]2CCNC2)nc1 (stereo partly drawn) [Compound I-272, 2-(1-(6-((R)-pyrrolidin-3-ylamino)pyridin-3-yl)ethylamino)-4-(5-(trifluoromethyl)-1H-pyrrolo[2,3-b]pyridin-3-yl)pyrimidine-5-carbonitrile]
< 3	323	185	CC(Nc1ncc(C#N)c(-c2c[nH]c3ncc(C(F)(F)F)cc23)n1)c1ccc(N2CCNCC2)cc1 (stereo not drawn) [Compound I-124, 2-(1-(4-(piperazin-1-yl)phenyl)ethylamino)-4-(5-(trifluoromethyl)-1H-pyrrolo[2,3-b]pyridin-3-yl)pyrimidine-5-carbonitrile]
< 3	1152		C[C@@H](Nc1ncc(C#N)c(-c2c[nH]c3ncc(C(F)(F)F)cc23)n1)c1ccc(N2CCNCC2)nc1 [Compound I-267, 2-((R)-1-(6-(piperazin-1-yl)pyridin-3-yl)ethylamino)-4-(5-(trifluoromethyl)-1H-pyrrolo[2,3-b]pyridin-3-yl)pyrimidine-5-carbonitrile]
< 3	4074		C[C@@H]1CN(c2ccc([C@@H](C)Nc3ncc(C#N)c(-c4c[nH]c5ncc(C(F)(F)F)cc45)n3)cn2)CCN1 [Compound I-274, 2-((R)-1-(6-((R)-3-methylpiperazin-1-yl)pyridin-3-yl)ethylamino)-4-(5-(trifluoromethyl)-1H-pyrrolo[2,3-b]pyridin-3-yl)pyrimidine-5-carbonitrile]
< 3	2952		C[C@@H]1CN(c2ccc([C@@H](C)Nc3ncc(C#N)c(-c4c[nH]c5ncc(C(F)(F)F)cc45)n3)cn2)C[C@H](C)N1 [Compound I-276, 2-((R)-1-(6-((3S,5R)-3,5-dimethylpiperazin-1-yl)pyridin-3-yl)ethylamino)-4-(5-(trifluoromethyl)-1H-pyrrolo[2,3-b]pyridin-3-yl)pyrimidine-5-carbonitrile]
< 3		39	CC(Nc1ncc(C#N)c(-c2c[nH]c3ncc(C(F)(F)F)cc23)n1)c1ccc(N[C@H]2CCNC2)nc1 (stereo partly drawn) [Compound I-277, 2-(1-(6-((S)-pyrrolidin-3-ylamino)pyridin-3-yl)ethylamino)-4-(5-(trifluoromethyl)-1H-pyrrolo[2,3-b]pyridin-3-yl)pyrimidine-5-carbonitrile]
< 3			C[C@@H](Nc1ncc(C#N)c(-c2c[nH]c3ncc(C(F)(F)F)cc23)n1)C1CCN(C(=O)C(N)=O)CC1 [Compound I-258, 2-(4-((1R)-1-(5-cyano-4-(5-(trifluoromethyl)-1H-pyrrolo[2,3-b]pyridin-3-yl)pyrimidin-2-ylamino)ethyl)piperidin-1-yl)-2-oxoacetamide]
< 3			CC(Nc1ncc(C#N)c(-c2c[nH]c3ncc(C(F)(F)F)cc23)n1)c1ccc(N(C)C)nc1 (stereo not drawn) [Compound I-143, 2-(1-(6-(dimethylamino)pyridin-3-yl)ethylamino)-4-(5-(trifluoromethyl)-1H-pyrrolo[2,3-b]pyridin-3-yl)pyrimidine-5-carbonitrile]
< 3			CC(C)[C@H](CO)Nc1ncc(C#N)c(-c2c[nH]c3ncc(C(F)(F)F)cc23)n1 [Compound I-47, 2-((R)-1-hydroxy-3-methylbutan-2-ylamino)-4-(5-(trifluoromethyl)-1H-pyrrolo[2,3-b]pyridin-3-yl)pyrimidine-5-carbonitrile]
> 40			CCN1CCC(CNc2ncc(C#N)c(-c3c[nH]c4ncc(C(F)(F)F)cc34)n2)CC1 [Compound I-118, 2-((1-ethylpiperidin-4-yl)methylamino)-4-(5-(trifluoromethyl)-1H-pyrrolo[2,3-b]pyridin-3-yl)pyrimidine-5-carbonitrile]
3 to 40			CCC(Nc1ncc(C#N)c(-c2c[nH]c3ncc(C(F)(F)F)cc23)n1)C1CCN(S(=O)(=O)C(C)C)CC1 (stereo not drawn) [Compound I-182, 2-(1-(1-(isopropylsulfonyl)piperidin-4-yl)propylamino)-4-(5-(trifluoromethyl)-1H-pyrrolo[2,3-b]pyridin-3-yl)pyrimidine-5-carbonitrile]
< 3			CC[C@@H](C)Nc1ncc(C#N)c(-c2c[nH]c3ncc(C(F)(F)F)cc23)n1 [Compound I-83, 2-(sec-butylamino)-4-(5-(trifluoromethyl)-1H-pyrrolo[2,3-b]pyridin-3-yl)pyrimidine-5-carbonitrile]
< 3			COCCC(=O)N1CCC(C(C)Nc2ncc(C#N)c(-c3c[nH]c4ncc(C(F)(F)F)cc34)n2)CC1 (stereo not drawn) [Compound I-184, 2-(1-(1-(3-methoxypropanoyl)piperidin-4-yl)ethylamino)-4-(5-(trifluoromethyl)-1H-pyrrolo[2,3-b]pyridin-3-yl)pyrimidine-5-carbonitrile]
3 to 40			N#Cc1cnc(NC(CO)c2ccccc2)nc1-c1c[nH]c2ncc(C(F)(F)F)cc12 (stereo not drawn) [Compound I-75, 2-(2-hydroxy-1-phenylethylamino)-4-(5-(trifluoromethyl)-1H-pyrrolo[2,3-b]pyridin-3-yl)pyrimidine-5-carbonitrile]
3 to 40			C[C@H](CO)Nc1ncc(C#N)c(-c2c[nH]c3ncc(C(F)(F)F)cc23)n1 [Compound I-107, 2-((R)-1-hydroxypropan-2-ylamino)-4-(5-(trifluoromethyl)-1H-pyrrolo[2,3-b]pyridin-3-yl)pyrimidine-5-carbonitrile]
3 to 40			CC(C)[C@H](CN1CCOCC1)Nc1ncc(C#N)c(-c2c[nH]c3ncc(C(F)(F)F)cc23)n1 [Compound I-128, 2-((R)-3-methyl-1-morpholinobutan-2-ylamino)-4-(5-(trifluoromethyl)-1H-pyrrolo[2,3-b]pyridin-3-yl)pyrimidine-5-carbonitrile]
> 40			C#CCNc1ncc(C#N)c(-c2c[nH]c3ncc(C(F)(F)F)cc23)n1 [Compound I-79, 2-(prop-2-ynylamino)-4-(5-(trifluoromethyl)-1H-pyrrolo[2,3-b]pyridin-3-yl)pyrimidine-5-carbonitrile]
> 40			N#Cc1cnc(NCCN2CCSCC2)nc1-c1c[nH]c2ncc(C(F)(F)F)cc12 [Compound I-86, 2-(2-thiomorpholinoethylamino)-4-(5-(trifluoromethyl)-1H-pyrrolo[2,3-b]pyridin-3-yl)pyrimidine-5-carbonitrile]
> 40			N#Cc1cnc(NC2CCCc3ccccc32)nc1-c1c[nH]c2ncc(C(F)(F)F)cc12 (stereo not drawn) [Compound I-34, 2-(1,2,3,4-tetrahydronaphthalen-1-ylamino)-4-(5-(trifluoromethyl)-1H-pyrrolo[2,3-b]pyridin-3-yl)pyrimidine-5-carbonitrile]

Reference: US8530489B2 (Vertex Pharmaceuticals Incorporated, priority 2006, dated 2013)
